Experimental data taken from ChEMBL document CHEMBL5725343, “Amino-substituted isothiazoles” (2017).

Legend:
[1] = biological target: Mitotic checkpoint serine/threonine-protein kinase BUB1 (Homo sapiens, UniProt O43683); assay: Bub1 Kinase Assay: Recombinant fusion proteins of GST and human CDK2 and of GST and human CycE, expressed in insect cells (Sf9) and purified by Glutathion-Sepharose affinity chromatography, were purchased from ProQinase GmbH (Freiburg, Germany). As substrate for the kinase reaction biotinylated peptide biotin-Ttds-YISPLKSPYKISEG (C-terminus in amid form) was used which can be purchased e.g. form the company JERINI peptide technologies (Berlin, Germany). For the assay 50 nl of a 100 fold concentrated solution of the test compound in DMSO was pipetted into a black low volume 384 well microtiter plate (Greiner Bio-One, Frickenhausen, Germany), 2 ul of a solution of CDK2/CycE in aqueous assay buffer [50 mM Tris/HCl pH 8.0, 10 mM MgCl2, 1.0 mM dithiothreitol, 0.1 mM sodium ortho-vanadate, 0.01% (v/v) Nonidet-P40 (Sigma)] were added and the mixture was incubated for 15 min at 22° C. to allow pre-binding of the test compounds to the enzyme before the start of the kinase reaction. Then the kinase reaction was started by the addition of 3 ul of a solution of adenosine-tri-phosphate (ATP, 16.7 uM=>final conc. in the 5 ul assay volume is 10 uM) and substrate (1.25 uM=>final conc. in the 5 ul assay volume is 0.75 uM) in assay buffer and the resulting mixture was incubated for a reaction time of 25 min at 22° C. […]
[2] = biological target: T1, Dual specificity protein kinase TTK (Homo sapiens, UniProt P33981); assay: Mps-1 Kinase Assay: N-terminally GST-tagged human full length recombinant Mps-1 kinase (purchased from Invitrogen, Karslruhe, Germany, cat. no PV4071) was used. As substrate for the kinase reaction a biotinylated peptide of the amino-acid sequence biotin-Ahx-PWDPDDADITEILG (C-terminus in amide form, purchased from Biosyntan GmbH, Berlin) was used. For the assay 50 nl of a 100-fold concentrated solution of the test compound in DMSO was pipetted into a black low volume 384 well microtiter plate (Greiner Bio-One, Frickenhausen, Germany), 2 ul of a solution of Mps-1 in assay buffer [0.1 mM sodium-ortho-vanadate, 10 mM MgCl2, 2 mM DTT, 25 mM Hepes pH 7.7, 0.05% BSA (w/v), 0.001% Pluronic F-127] were added and the mixture was incubated for 15 min at 22° C. to allow pre-binding of the test compounds to Mps-1 before the start of the kinase reaction. Then the kinase reaction was started by the addition of 3 ul of a solution of 16.7 uM adenosine-tri-phosphate (ATP, 16.7 uM=>final conc. in the 5 ul assay volume is 10 uM) and peptide substrate (1.67 uM=>final conc. in the 5 ul assay volume is 1 uM) in assay buffer and the resulting mixture was incubated for a reaction time of 60 min at 22° C. […]
T1 sequence (P33981 whole entry): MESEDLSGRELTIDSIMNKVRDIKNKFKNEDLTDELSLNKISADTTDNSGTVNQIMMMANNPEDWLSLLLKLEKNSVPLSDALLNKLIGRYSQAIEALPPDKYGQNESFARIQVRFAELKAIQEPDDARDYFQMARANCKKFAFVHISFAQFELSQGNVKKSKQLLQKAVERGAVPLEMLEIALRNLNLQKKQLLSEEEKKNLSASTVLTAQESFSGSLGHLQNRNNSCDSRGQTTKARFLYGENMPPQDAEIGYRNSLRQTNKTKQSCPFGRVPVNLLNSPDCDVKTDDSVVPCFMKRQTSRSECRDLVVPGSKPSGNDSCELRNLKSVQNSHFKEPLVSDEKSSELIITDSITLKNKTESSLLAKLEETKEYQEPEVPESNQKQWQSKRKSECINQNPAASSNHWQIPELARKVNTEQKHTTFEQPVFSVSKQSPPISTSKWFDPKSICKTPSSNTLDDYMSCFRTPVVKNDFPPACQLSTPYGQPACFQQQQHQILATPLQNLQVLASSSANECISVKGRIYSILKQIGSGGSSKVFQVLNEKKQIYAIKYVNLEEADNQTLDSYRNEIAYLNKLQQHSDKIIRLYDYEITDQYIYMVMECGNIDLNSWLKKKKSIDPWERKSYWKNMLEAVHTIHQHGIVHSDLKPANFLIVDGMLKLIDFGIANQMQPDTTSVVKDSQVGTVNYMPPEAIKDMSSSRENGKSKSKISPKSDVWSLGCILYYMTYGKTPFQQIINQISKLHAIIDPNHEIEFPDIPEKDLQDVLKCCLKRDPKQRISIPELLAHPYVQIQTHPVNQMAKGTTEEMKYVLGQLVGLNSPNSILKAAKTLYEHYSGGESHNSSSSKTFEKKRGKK

[3] = […]: N-terminally His6-tagged recombinant catalytic domain of human Bub1 (amino acids 704-1085), expressed in insect cells (Hi5) and purified by Ni-NTA affinity chromatography and subsequent size exclusion chromatography, was used as enzyme. As substrate for the kinase reaction the biotinylated peptide biotin-Ahx-VLLPKKSFAEPG (C-terminus in amid form) was used which can be purchased e.g. form the company Biosyntan (Berlin, Germany). For the assay 50 nl of a 100 fold concentrated solution of the test compound in DMSO was pipetted into a black low volume 384 well microtiter plate (Greiner Bio-One, Frickenhausen, Germany), 2 ul of a solution of Bub1 in aqueous assay buffer [50 mM Tris/HCl pH 7.5, 10 mM magnesium chloride (MgCl2), 200 mM potassium chloride (KCl), 1.0 mM dithiothreitol (DTT), 0.1 mM sodium ortho-vanadate, 1% (v/v) glycerol, 0.01% (w/v) bovine serum albumine (BSA), 0.005% (v/v) Trition X-100 (Sigma), 1x Complete EDTA-free protease inhibitor mixture (Roche)] were added and the mixture was incubated for 15 min at 22° C. to allow pre-binding of the test compounds to the enzyme before the start of the kinase reaction. […]

Chain of Mitotic checkpoint serine/threonine-protein kinase BUB1 (O43683 whole entry, the tested form may be a part): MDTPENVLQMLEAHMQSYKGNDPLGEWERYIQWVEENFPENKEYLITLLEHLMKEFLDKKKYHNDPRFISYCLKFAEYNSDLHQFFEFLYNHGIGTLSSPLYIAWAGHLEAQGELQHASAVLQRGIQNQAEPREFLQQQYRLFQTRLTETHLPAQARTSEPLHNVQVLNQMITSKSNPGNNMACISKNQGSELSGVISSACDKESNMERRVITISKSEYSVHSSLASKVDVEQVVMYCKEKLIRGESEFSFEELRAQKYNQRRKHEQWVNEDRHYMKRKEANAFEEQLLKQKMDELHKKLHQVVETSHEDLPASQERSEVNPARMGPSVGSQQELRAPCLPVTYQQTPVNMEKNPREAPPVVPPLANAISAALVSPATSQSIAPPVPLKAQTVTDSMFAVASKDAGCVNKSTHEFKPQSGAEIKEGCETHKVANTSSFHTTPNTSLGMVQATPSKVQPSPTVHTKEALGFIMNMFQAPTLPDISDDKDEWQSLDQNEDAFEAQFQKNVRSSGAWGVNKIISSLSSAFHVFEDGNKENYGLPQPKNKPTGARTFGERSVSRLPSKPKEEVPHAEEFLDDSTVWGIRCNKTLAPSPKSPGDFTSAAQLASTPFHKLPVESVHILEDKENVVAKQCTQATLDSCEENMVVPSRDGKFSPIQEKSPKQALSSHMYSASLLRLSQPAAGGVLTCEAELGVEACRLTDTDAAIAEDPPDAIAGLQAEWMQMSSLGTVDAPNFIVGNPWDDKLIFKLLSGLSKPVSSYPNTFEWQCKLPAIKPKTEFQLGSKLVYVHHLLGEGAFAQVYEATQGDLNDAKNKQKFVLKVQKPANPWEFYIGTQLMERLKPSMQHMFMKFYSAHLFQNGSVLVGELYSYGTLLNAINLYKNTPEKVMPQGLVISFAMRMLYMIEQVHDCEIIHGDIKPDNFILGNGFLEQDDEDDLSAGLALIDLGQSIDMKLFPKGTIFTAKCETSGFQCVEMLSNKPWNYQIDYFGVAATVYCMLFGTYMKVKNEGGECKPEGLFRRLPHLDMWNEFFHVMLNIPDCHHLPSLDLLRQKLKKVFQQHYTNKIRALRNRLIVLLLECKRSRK

Row | IC50 [1] [µM] | IC50 [2] [µM] | Structure (SMILES) | IC50 [3] [µM]
1 | 15 | > 20 | Cc1nsc(Nc2cncc(-n3cccn3)n2)c1C(=O)Nc1ccc(F)c(F)c1 | –
2 | > 20 | > 20 | Cc1nsc(Nc2cc(C#N)ccn2)c1C(=O)Nc1ccc(Oc2ccc(F)cc2F)nc1 | –
3 | – | – | COc1ccc(Oc2ccc(CC(=O)c3c(C)nsc3Nc3cc(C#N)ccn3)cn2)cc1 | > 20
